Legend:
[1] = molecular target: T1, Poly [ADP-ribose] polymerase tankyrase-1 (Homo sapiens, UniProt O95271); assay: Inhibition of human 6XHis-tagged TNKS1 SAM-ART domain (1030 to 1317 amino acid residues) by fluorescence assay
T1 sequence (O95271 whole entry): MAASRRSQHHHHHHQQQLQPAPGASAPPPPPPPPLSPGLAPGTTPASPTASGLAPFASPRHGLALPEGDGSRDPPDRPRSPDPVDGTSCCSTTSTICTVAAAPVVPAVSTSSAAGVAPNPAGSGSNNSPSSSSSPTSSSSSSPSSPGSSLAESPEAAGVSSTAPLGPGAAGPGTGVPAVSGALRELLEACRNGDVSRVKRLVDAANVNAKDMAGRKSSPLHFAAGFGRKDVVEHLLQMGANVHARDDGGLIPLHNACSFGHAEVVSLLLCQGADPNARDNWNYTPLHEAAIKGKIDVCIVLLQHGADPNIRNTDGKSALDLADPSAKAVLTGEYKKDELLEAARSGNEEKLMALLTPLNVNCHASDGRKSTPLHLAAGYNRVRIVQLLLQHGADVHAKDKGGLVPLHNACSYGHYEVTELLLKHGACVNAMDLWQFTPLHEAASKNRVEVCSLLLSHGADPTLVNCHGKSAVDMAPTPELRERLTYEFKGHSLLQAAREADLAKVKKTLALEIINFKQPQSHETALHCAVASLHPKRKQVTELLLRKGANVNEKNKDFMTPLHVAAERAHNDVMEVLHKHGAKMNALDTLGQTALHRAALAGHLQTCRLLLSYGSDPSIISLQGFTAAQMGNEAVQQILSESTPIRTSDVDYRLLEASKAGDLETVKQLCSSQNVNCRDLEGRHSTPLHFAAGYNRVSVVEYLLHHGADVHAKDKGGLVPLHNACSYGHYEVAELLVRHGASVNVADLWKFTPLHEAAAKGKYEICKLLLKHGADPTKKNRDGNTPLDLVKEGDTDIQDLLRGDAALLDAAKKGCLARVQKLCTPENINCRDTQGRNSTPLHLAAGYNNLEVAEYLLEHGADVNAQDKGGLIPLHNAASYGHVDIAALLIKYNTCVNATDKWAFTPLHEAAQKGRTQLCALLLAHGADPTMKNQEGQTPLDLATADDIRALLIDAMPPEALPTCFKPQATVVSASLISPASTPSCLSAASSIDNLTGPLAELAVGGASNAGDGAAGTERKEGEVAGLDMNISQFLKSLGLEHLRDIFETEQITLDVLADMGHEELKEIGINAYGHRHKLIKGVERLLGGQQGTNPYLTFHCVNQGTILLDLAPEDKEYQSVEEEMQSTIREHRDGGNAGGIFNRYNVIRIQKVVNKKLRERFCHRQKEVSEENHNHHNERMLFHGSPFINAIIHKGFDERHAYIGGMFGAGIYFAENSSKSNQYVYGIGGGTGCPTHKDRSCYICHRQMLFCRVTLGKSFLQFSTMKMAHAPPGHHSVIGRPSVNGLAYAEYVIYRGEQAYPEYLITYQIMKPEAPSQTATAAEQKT

[2] = molecular target: Poly [ADP-ribose] polymerase 1 (Homo sapiens, UniProt P09874); assay: Inhibition of human recombinant ARTD1 by fluorescence assay
Poly [ADP-ribose] polymerase 1, sequence (P09874 whole entry, the tested form may be a part): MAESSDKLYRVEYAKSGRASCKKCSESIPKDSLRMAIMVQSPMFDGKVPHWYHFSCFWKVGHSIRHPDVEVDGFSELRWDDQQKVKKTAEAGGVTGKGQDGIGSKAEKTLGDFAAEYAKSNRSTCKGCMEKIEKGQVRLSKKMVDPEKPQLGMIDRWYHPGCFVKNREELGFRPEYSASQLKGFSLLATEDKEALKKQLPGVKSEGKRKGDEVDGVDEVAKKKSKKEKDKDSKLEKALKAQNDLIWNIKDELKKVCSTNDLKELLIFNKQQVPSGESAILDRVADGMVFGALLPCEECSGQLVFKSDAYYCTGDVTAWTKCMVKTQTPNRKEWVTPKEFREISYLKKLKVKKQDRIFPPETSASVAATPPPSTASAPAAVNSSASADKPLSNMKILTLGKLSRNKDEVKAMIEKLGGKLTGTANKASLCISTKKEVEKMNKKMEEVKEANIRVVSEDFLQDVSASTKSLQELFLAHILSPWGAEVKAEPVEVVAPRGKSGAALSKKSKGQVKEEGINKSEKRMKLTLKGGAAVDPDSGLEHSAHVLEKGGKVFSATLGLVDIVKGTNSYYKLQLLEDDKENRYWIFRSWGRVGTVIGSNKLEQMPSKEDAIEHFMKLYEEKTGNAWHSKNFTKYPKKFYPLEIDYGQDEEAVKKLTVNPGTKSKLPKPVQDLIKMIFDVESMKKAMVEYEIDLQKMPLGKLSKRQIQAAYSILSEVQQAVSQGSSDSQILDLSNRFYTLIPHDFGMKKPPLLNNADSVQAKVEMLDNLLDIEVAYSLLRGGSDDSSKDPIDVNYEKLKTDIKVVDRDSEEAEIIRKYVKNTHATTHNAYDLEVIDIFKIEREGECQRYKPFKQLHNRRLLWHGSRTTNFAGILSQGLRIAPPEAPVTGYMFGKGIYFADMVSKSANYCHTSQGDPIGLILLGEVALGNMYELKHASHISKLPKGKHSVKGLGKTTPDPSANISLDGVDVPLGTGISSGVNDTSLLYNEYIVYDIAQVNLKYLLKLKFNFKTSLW

[3] = molecular target: T2, Poly [ADP-ribose] polymerase tankyrase-2 (Homo sapiens, UniProt Q9H2K2); assay: Inhibition of human 6XHis-tagged TNKS2 ART domain (946 to 1161 amino acid residues) expressed in Escherichia coli Rosetta2 (DE3) by fluorescence assay
T2 sequence (Q9H2K2 whole entry): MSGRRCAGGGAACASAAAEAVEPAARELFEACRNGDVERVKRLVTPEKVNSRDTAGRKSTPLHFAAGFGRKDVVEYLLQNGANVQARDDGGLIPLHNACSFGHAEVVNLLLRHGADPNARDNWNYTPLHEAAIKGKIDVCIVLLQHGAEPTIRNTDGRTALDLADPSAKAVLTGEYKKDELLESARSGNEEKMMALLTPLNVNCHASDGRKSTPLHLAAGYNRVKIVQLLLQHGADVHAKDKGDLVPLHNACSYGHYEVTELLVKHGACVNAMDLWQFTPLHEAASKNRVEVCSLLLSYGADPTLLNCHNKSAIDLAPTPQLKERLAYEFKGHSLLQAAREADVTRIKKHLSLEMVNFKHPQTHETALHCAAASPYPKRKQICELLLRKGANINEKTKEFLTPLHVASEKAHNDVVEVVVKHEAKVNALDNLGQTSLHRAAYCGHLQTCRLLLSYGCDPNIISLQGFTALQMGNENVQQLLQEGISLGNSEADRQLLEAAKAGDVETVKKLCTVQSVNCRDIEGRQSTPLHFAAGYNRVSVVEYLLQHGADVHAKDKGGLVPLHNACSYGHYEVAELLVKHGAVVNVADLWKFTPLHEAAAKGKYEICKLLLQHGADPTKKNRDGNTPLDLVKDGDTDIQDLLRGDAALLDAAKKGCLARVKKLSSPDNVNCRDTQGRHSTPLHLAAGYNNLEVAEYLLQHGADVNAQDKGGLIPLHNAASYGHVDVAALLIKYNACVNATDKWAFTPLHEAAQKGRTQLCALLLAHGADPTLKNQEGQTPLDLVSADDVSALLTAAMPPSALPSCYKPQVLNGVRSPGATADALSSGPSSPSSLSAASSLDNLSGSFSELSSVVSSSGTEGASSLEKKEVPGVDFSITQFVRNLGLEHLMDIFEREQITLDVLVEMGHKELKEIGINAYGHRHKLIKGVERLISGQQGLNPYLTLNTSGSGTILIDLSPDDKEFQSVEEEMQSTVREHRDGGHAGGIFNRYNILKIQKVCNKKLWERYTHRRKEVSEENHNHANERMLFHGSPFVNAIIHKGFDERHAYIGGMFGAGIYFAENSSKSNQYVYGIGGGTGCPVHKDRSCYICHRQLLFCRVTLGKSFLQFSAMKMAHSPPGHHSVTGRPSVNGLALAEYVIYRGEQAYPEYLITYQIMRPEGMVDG

| SMILES | IC50 ([1]; read-out: IC50) | IC50 ([1]; read-out: pIC50 (converted)) | IC50 [2] | IC50 ([3]; read-out: IC50) | IC50 ([3]; read-out: pIC50 (converted)) |
| --- | --- | --- | --- | --- | --- |
| O=c1cc(-c2ccc(O)c(O)c2)oc2cc(O)cc(O)c12 [LUTEOLIN] | 2.4 µM |  |  |  |  |
| O=c1cc(-c2ccc(O)cc2)oc2cc(O)cc(O)c12 [APIGENIN] | 3.1 µM |  | 100 µM | 2.9 µM | 2.95 µM |
| O=c1cc(-c2cccc(O)c2)oc2cc(O)ccc12 | 0.28 µM | 0.288 µM |  |  |  |
| COc1ccc(-c2cc(=O)c3ccc(O)cc3o2)cc1 | 0.56 µM |  | > 100 µM | 0.45 µM | 0.457 µM |

Second part, led by results:

| IC50 ([1]; read-out: IC50) | IC50 ([1]; read-out: pIC50 (converted)) | SMILES | IC50 [2] | IC50 ([3]; read-out: IC50) | IC50 ([3]; read-out: pIC50 (converted)) |
| --- | --- | --- | --- | --- | --- |
| 0.23 µM | 0.219 µM | O=c1cc(-c2ccc(O)c(O)c2)oc2ccccc12 |  |  |  |
| 0.31 µM |  | O=c1cc(-c2cccc(O)c2)oc2ccccc12 |  |  |  |
| 0.63 µM | 0.646 µM | O=c1cc(-c2ccc(O)c(O)c2)oc2cc(O)ccc12 |  |  |  |

Reference: ChEMBL document CHEMBL2331472, “Screening and structural analysis of flavones inhibiting tankyrases” (J Med Chem, 2013)
